Data taken from ChEMBL document CHEMBL1144390, “Equipotent activity in both enantiomers of a series of ketopiperazine-based renin inhibitors” (Bioorg Med Chem Lett, 2005).

target: T1, Renin (Homo sapiens, UniProt P00797); test: Concentration required to inhibit renin activity by 50%
T1 sequence (P00797 whole entry): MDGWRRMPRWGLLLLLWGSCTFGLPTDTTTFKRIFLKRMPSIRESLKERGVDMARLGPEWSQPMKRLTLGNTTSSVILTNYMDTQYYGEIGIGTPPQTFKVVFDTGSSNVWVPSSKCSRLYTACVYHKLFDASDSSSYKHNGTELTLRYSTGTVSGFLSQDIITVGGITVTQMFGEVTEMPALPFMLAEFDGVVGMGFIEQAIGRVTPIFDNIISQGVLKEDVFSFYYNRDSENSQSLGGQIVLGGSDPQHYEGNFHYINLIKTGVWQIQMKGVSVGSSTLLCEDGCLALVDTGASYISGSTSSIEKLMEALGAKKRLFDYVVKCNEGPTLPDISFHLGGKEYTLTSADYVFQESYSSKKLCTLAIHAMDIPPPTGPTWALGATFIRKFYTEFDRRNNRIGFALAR

| Compound | IC50 |
| --- | --- |
| COCCCN1C(=O)CCc2ccc(OC[C@@H]3CNCC(=O)N3c3ccc(OCCCOCc4ccccc4OC)cc3)cc21 | 17 nM |
| COc1ccccc1COCCCOc1ccc(N2C(=O)CNC[C@H]2COc2ccc3c(c2)N(CCO)CCC3)cc1 | 33 nM |
| COCCCN1C(=O)CCc2ccc(OC[C@H]3CNCC(=O)N3c3ccc(OCCCOCc4ccccc4OC)cc3)cc21 | 7 nM |
| COc1ccccc1COCCCOc1ccc(N2C(=O)CNC[C@H]2COc2ccc3c(c2)NCCC3)cc1 | 23 nM |
| COc1ccccc1COCCCOc1ccc(N2C(=O)CNC[C@@H]2COc2ccc3c(c2)NCCC3)cc1 | 120 nM |
| COc1ccccc1COCCCOc1ccc(N2C(=O)CNC[C@H]2COc2ccc3c(c2)N(CCCO)CCC3)cc1 | 35 nM |
| COc1ccccc1COCCCOc1ccc(N2C(=O)CNC[C@H]2COc2ccc3cccnc3c2)cc1 | 860 nM |
